Among the targets are Cytochrome P450 3A4 (Homo sapiens, UniProt P08684); Cytochrome P450 2C9 (Homo sapiens, UniProt P11712); Cytochrome P450 2D6 (Homo sapiens, UniProt P10635).
The next data set deals with T1, Protein skinhead-1 (Caenorhabditis elegans, UniProt P34707).
T1 sequence (P34707 whole entry): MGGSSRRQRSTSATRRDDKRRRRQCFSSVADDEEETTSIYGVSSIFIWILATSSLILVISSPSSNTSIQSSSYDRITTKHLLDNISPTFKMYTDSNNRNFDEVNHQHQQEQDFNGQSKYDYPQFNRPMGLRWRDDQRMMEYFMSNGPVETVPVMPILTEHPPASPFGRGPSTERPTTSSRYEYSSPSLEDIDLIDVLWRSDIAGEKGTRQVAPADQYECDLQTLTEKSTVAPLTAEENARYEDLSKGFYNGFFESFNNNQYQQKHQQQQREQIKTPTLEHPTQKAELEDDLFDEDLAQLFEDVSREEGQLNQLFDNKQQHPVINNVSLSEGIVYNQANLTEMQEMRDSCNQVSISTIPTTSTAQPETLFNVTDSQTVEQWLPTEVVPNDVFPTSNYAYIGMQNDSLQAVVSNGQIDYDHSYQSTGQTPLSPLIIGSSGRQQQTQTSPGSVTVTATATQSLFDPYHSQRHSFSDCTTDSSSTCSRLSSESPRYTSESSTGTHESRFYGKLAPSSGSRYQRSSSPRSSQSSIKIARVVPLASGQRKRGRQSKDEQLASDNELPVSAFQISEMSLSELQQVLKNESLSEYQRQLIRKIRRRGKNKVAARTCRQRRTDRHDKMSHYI
It counts as functional.

The next data set deals with Large T antigen (Simian virus 40, UniProt P03070). It counts as functional, Betapolyomavirus macacae.
Another data set concerns the target T2, Aminopeptidase N (Plasmodium falciparum FcB1/Columbia, UniProt O96935).
T2 sequence (O96935 whole entry): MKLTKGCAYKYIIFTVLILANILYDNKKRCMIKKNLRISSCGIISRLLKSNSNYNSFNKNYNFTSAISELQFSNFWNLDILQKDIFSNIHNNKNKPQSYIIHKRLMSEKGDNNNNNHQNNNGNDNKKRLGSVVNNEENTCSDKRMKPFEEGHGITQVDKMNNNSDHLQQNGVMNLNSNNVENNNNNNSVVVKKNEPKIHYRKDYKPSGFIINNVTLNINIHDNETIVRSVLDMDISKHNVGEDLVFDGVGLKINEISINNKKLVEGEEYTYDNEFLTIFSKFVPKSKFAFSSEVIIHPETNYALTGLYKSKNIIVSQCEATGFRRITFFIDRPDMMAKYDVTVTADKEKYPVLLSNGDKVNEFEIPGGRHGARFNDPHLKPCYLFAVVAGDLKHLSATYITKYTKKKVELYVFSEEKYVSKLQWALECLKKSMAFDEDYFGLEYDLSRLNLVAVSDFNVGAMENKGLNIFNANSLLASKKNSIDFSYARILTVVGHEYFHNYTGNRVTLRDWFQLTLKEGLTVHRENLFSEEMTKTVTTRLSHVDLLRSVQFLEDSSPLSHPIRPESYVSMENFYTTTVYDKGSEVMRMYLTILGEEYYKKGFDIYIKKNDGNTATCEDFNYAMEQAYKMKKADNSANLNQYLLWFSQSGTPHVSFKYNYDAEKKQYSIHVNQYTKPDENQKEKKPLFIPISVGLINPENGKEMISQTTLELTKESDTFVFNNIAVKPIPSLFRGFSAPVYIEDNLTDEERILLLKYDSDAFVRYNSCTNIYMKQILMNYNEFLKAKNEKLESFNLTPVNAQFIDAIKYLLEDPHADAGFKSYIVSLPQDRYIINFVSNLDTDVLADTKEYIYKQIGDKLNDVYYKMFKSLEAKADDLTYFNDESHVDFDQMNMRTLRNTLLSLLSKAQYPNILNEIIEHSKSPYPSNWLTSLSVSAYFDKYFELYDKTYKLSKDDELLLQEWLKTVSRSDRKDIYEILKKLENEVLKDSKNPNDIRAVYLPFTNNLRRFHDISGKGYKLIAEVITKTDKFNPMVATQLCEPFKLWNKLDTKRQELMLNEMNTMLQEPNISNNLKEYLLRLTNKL
Kind of data set: P. falciparum M1AAP inhibitors, biochemical, fluorogenic H-Leu-NHMec substrate, 1536-well (AID 1445). Set-up: species or system Plasmodium falciparum 3D7, 3D7.

For data set [1], the target named is Induced myeloid leukemia cell differentiation protein Mcl-1 (Homo sapiens, UniProt Q07820). It counts as functional.
The test system of data set [2] is BJ. Put plainly: cytotoxicity toward BJ-TERT-LT-ST fibroblasts, dose response, cell-based, RAS-independent, luminescence (AID 1935).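 Further: BJ fibroblasts immortalized with TERT plus LT and ST oncogenes.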 The conditions noted are these: Homo sapiens. The class given is functional.
Data set [3] deals with Heat shock protein HSP 90-alpha (Homo sapiens, UniProt P07900). It counts as functional, organism-based.
The subject of data set [4] is BJ. Put plainly: cytotoxicity toward BJ-TERT fibroblasts, dose response, cell-based, RAS-independent, luminescence (AID 1933). Particulars: Homo sapiens. It counts as functional.
Data set [5] is described as follows: cytotoxicity toward DRD oncogenic fibroblasts, dose response, cell-based, non-viral oncogenic, luminescence (AID 1934). It counts as functional. Particulars: Homo sapiens.
For data set [6], the system named is BJ. Kind of data set: cells. It counts as functional, cell-based. Particulars: Homo sapiens.
The target in data set [7] is T3, Heat shock factor protein 1 (Mus musculus, UniProt P38532).
T3 sequence (P38532 whole entry): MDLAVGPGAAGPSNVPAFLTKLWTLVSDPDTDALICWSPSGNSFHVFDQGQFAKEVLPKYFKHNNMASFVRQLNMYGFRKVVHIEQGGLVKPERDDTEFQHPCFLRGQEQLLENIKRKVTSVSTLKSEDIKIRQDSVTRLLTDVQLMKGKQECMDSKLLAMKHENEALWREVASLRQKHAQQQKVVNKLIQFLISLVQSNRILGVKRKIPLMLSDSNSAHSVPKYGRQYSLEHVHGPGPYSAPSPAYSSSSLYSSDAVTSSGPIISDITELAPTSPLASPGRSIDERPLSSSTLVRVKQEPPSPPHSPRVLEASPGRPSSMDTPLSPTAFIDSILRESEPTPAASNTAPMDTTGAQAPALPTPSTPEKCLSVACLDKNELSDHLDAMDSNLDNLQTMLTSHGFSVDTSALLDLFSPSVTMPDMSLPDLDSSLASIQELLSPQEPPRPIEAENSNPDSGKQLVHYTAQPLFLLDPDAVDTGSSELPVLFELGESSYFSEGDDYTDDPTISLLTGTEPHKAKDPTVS
Kind of data set: inhibition of MG132-induced HSE-luciferase signal, confirmation, cell-based, NIH3T3, luminescence, dose retest (AID 2382).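 Further: NIH3T3 fibroblasts with HSF1-driven luciferase reporter stressed by proteasome inhibitor MG132; luminescence from HSF1-driven luciferase expression after 8 hours of MG132 stress.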 The class given is functional.

Another data set concerns Vero. Kind of data set: cells. The conditions noted are these: Chlorocebus sabaeus. It counts as functional.
In the next data set the target is Paired box protein Pax-8 (Homo sapiens, UniProt Q06710). Put plainly: inhibitors of PAX8-driven TPO luciferase reporter, dose response, RMG-I cells, cherry-pick (AID 687027).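 Further: luciferase reporter driven by Pax8 target thyroperoxidase promoter measured by SteadyGlo luminescence.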 The class given is functional, cell-based. (Reporter assays use an easily measured gene product as a stand-in for the process of interest.)
The nature of data set [8]: Luminescence Cell-Based Dose Retest to Confirm Inhibitors of Cancer Stem Cells. [Related pubchem assays (depositor defined):AID2717, AID2721]. The class given is functional. Particulars: Homo sapiens.
The target of the next data set is Cytochrome P450 2C19 (Homo sapiens, UniProt P33261). Put plainly: Cytochrome panel assay with activity outcomes. Panel member name: p450-cyp2c19 Compounds with AC50 equal or less than 10 uM are considered active. It counts as functional. Particulars: read-out: AC50.
Data set [9] can be described thus: HEp-2 cell cytotoxicity, dose response, cytotoxicity control for RSV inhibitor project, HTS (AID 2410). The class given is functional. The conditions noted are these: human respiratory syncytial virus.
Data set [10] in a line: inhibitors of clade B AD8 Env fusion, dose response, cell-based, cherry-pick (AID 652062).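 Further: luciferase signal from cell-cell fusion driven by HIV-1 clade B AD8 Env; potency is for inhibitors of fusion seen as a drop in luminescence.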 It counts as functional.
A short description of data set [11]: inhibitors of HIV Env-driven cell fusion, dose response, cherry-pick (AID 652057). The class given is functional, cell-based.
A short description of data set [12]: off-target signal loss in HeLa-CEM21 co-culture – HeLa F-luc CTL cells, cherry-picked, counter-screen for HIV-1 Env fusion inhibitor project, dose response (AID 652040).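 Further: potency for signal decrease marking cytotoxic or nonspecific inhibition.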 It counts as functional, cell-based.
Data set [13] in a line: ZM109 Env clade C HIV-1 fusion inhibitors, dose response, HeLa effector, CEM target cells, luciferase, cherry-pick (AID 652058). The class given is functional, cell-based.
Data set [14] in a line: miR-122 activators in hepatoma reporter cells, dose response, cell-based, Huh7 psiCHECK-miR122, Renilla luciferase, cherry-picked (AID 651956).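 Further: huh7 hepatoma cells stably carrying a psiCHECK-2 miR-122 sensor plasmid; renilla luciferase signal reporting endogenous miR-122 activity after 48 h compound exposure.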 The class given is functional.

Active and inactive are the calls of the source.

Chain of Cytochrome P450 3A4 (P08684 whole entry): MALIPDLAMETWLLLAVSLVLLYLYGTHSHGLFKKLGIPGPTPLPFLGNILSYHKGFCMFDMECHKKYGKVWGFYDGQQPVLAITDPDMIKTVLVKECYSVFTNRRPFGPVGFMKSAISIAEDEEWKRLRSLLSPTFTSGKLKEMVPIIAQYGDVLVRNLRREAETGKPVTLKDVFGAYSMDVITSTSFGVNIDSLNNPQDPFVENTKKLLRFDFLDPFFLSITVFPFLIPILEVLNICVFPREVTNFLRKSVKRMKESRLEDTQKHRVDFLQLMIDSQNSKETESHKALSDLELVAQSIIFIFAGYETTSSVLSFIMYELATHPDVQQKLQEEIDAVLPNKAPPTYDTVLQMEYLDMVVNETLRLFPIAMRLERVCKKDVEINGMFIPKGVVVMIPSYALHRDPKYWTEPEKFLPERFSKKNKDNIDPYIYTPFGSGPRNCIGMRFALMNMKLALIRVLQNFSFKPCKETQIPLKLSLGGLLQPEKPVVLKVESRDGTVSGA
Chain of Cytochrome P450 2C9 (P11712 whole entry): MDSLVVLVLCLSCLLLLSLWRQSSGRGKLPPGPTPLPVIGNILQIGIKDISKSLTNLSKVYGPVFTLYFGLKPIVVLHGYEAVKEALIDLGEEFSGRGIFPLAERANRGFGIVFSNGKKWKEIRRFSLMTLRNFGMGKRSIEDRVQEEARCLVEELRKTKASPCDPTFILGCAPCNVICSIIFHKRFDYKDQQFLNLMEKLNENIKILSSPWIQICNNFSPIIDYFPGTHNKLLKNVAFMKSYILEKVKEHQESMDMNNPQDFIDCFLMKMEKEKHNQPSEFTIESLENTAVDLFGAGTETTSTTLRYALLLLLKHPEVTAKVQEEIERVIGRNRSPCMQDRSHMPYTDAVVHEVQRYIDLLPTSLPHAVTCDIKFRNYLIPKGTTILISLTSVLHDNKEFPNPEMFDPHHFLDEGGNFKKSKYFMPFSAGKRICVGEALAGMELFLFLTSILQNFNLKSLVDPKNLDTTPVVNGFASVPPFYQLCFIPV
Chain of Induced myeloid leukemia cell differentiation protein Mcl-1 (Q07820 whole entry): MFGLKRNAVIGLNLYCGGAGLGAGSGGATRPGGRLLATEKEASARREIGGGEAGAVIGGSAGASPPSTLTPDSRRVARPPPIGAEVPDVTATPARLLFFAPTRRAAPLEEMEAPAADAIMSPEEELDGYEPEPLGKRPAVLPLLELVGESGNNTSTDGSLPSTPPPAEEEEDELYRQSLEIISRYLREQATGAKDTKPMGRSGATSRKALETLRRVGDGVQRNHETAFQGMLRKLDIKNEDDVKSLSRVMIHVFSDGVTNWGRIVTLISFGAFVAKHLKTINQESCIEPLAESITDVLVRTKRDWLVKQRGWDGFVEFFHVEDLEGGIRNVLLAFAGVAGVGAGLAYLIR
Chain of Large T antigen (P03070 whole entry): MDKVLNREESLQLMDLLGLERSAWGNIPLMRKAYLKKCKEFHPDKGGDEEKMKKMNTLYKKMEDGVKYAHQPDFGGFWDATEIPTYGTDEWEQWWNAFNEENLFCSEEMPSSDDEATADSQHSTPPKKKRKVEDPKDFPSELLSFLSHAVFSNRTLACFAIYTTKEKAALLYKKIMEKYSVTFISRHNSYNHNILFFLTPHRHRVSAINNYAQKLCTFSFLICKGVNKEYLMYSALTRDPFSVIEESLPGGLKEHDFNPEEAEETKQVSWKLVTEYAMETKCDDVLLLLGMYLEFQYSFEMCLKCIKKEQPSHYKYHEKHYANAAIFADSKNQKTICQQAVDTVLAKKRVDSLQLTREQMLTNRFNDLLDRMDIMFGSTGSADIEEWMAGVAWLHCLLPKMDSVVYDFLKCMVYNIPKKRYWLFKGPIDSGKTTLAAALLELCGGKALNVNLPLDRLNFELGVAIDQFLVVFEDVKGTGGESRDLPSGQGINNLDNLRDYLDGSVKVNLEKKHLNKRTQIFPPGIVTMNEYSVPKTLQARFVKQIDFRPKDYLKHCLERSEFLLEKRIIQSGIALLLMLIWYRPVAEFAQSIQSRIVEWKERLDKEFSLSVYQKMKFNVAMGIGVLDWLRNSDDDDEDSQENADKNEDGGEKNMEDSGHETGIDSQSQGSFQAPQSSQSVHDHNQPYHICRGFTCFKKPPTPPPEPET
Chain of Cytochrome P450 2D6 (P10635 whole entry): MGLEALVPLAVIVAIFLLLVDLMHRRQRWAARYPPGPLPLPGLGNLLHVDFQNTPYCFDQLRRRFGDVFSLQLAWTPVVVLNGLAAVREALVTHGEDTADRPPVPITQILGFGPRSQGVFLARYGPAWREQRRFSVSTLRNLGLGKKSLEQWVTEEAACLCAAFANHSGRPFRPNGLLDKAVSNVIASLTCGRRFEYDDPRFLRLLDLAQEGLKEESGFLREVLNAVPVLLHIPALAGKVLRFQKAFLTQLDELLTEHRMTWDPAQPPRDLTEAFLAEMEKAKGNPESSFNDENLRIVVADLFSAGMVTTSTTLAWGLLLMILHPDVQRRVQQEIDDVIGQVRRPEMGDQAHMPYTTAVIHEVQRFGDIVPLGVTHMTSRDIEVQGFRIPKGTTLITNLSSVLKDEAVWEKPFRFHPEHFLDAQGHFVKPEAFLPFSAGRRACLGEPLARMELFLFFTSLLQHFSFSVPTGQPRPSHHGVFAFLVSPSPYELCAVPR
Chain of Paired box protein Pax-8 (Q06710 whole entry): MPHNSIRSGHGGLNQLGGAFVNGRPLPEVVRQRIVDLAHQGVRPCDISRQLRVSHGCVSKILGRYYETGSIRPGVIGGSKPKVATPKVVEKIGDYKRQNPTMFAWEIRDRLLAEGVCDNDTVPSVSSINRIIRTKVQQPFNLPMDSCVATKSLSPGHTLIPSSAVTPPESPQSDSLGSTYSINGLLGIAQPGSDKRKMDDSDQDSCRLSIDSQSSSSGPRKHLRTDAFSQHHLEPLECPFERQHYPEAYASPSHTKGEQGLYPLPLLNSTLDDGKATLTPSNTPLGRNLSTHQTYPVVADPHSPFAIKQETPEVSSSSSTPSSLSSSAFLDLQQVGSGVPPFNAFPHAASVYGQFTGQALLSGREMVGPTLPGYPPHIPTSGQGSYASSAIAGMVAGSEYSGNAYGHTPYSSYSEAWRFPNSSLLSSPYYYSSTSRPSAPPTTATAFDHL
Chain of Cytochrome P450 2C19 (P33261 whole entry): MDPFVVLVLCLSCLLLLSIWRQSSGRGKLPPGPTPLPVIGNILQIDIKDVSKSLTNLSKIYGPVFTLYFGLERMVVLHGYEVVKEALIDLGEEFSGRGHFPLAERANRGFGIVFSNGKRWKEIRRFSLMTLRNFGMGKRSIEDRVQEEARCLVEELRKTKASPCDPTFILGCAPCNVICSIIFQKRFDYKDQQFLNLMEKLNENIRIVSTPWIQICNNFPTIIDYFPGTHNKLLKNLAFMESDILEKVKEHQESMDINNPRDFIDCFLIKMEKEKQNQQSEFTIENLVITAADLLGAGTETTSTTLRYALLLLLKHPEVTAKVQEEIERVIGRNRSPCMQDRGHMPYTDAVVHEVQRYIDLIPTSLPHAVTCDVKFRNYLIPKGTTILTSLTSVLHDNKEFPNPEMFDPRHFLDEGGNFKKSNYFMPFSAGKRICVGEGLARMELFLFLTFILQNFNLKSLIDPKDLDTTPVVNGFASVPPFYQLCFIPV

The term IC50 denotes the concentration that gives 50% inhibition. Take `COc1ccc(/C=C/C(=O)c2nc3ccccc3n2CC(=O)c2ccc(OC)cc2)cc1`: on Protein skinhead-1, the IC50 is > 100 µM (inactive).

As a reminder, the AC50 is the concentration giving half of the maximal activity seen. `C[C@@]12CC[C@H]3[C@@H](CCC4=CC(=O)CC[C@]43C)[C@H]1CC[C@H]2C(=O)CO`: the AC50 entry at Cytochrome P450 3A4 is reported as “inconclusive”.

In the case of `CCOc1cc(/C=C2/C(=N)N3N=C(c4ccccc4)SC3=NC2=O)ccc1O`, the IC50 on Large T antigen was 10.2 µM (active); on Aminopeptidase N it was 30.1 µM (active); in data set [1], 3.61 µM (active).

One may read the EC50 as the concentration that produces a half-maximal response. The CC50 is the concentration at which the toxic effect on the cells reaches its halfway point. Consider `S=C1SCN(Cc2cccnc2)CN1Cc1cccnc1`, for which the EC50 with BJ [2] is 26.1 µM (active); in the data set with BJ [4] it was 2.48 µM (active); in [5] it was 8.06 µM (inconclusive); with BJ [6], 4.49 µM (active); in [7], > 195 µM (not active). Besides, the AC50 in data set [3] is 4.53 µM (active); on Paired box protein Pax-8 it was 3.62 µM (active). Also, the CC50 in the data set on Vero was 10.4 µM (active).

In the case of `COc1cc(NC(=O)c2csc(N)n2)cc(C(=O)Nc2cccc(C(F)(F)F)c2)c1`, the EC50 is 111 µM (active) with BJ [2], 8.47 µM (inconclusive) in the data set on BJ [4], 4.71 µM (active) in data set [5] and 52.4 µM (inconclusive) in the data set on BJ [6]. Further, the AC50 in data set [8] was 2.19 µM (active).

Regarding `CCSc1ncnc2c1sc1nc(-c3ccco3)c3c(c12)CC(C)(C)OC3`, the AC50 entry on Cytochrome P450 3A4 is “inconclusive”; on Cytochrome P450 2C9, 2 µM (inconclusive).

As for `N#Cc1ccc(CN2CCC3(CC2)CCN(C(=O)Oc2ccccc2)CC3)cc1`, at Cytochrome P450 3A4, the AC50 entry is recorded as “inconclusive”.

With `COc1ccccc1Nc1nc(-c2sc(NC(=O)c3ccc([N+](=O)[O-])cc3)nc2C)cs1`, the AC50 on Cytochrome P450 2C19 is 1.58 µM (inconclusive); at Cytochrome P450 2C9, 3.55 µM (inconclusive). In addition, the IC50 in data set [1] was 0.449 µM (active).

Take `CC(=O)O[C@H]1CC[C@@]2(C)[C@@H](CC[C@H]3[C@H]2CC(=O)[C@@]2(C)[C@@H]3C[C@H]3CC(C)=CC(=O)[C@H]32)C1`: on Cytochrome P450 3A4, the AC50 entry is given as “inconclusive”.

With `Cc1nc(Oc2ccccc2)c2oc3ccccc3c2n1`, on Protein skinhead-1, the IC50 was > 100 µM (inactive).

As to `O=C(Oc1ccccc1)N1CCC2(CC1)CCN(c1ccccc1)CC2`, at Cytochrome P450 3A4, the AC50 entry is “inconclusive”.

In the case of `O=C(/C=C/c1ccc(Cl)cc1)Nc1ccc(CN2CCOCC2)cc1`, the IC50 on Protein skinhead-1 was 14.3 µM (active).

As to `COc1ccc(NC2CC(=O)N(CCc3ccccc3)C2=O)cc1` (stereo not drawn), the IC50 on Protein skinhead-1 is > 100 µM (inactive).

For `Clc1ccc2c(c1)c1cc(Cl)ccc1n2CN1CCOCC1`, the CC50 in [9] is 17.9 µM (active). For the same compound, the IC50 on Protein skinhead-1 was 74.5 µM (inactive).

Take `CCOC(=O)c1c(C)c(C)n2c1NC(=O)C2`: the IC50 at Protein skinhead-1 was > 100 µM (inactive).

Turning to `Cc1nc2ccc3nc(NC(=O)c4ccc(S(=O)(=O)N5CCOCC5)cc4)sc3c2s1`, on Cytochrome P450 3A4, the AC50 entry is reported as “inconclusive”.

As for `O=C(NCc1nc2ccccc2[nH]1)C1=C[C@H](C2CCCCC2)C[C@H](OCc2ccc(CO)cc2)O1`, on Protein skinhead-1, the IC50 was > 100 µM (inactive). For the same compound, the CC50 with Vero is 16.1 µM (active).

In the case of `Cc1ccc2c(c1)[C@H]1[C@H](CO2)[C@H](c2ccccc2)[C@]2(C)C(=O)N(CC3CCCO3)CC(=O)N12` (stereo partly drawn), the AC50 in [10] is 9.2 µM (active); in [11], 2.63 µM (active); in data set [12], 4.49 µM (active); in [13] it was 2.05 µM (active).

`C#CC[N+](CC)(CC)CC#Cc1cccc(Cl)c1.[Br-]`: the AC50 entry at Cytochrome P450 3A4 was “inconclusive”; on Cytochrome P450 2D6 it was 2.24 µM (inconclusive).

For the compound `CC[C@]1(C(=O)OC)[C@H]2C(=O)N(Cc3ccccc3)C(=O)[C@H]2[C@H]2CN=C(SCc3ccc(C)cc3)N21`, the AC50 in data set [10] is 3.41 µM (active); in data set [11] it was 2.43 µM (active); in data set [12] it was 3.14 µM (active); in data set [13] it was 1.56 µM (active).

For the compound `O=C1[C@H]2[C@@H](C3CC3)N3C(=O)CN(CC4CC4)C(=O)[C@@]3(Cc3ccccc3)[C@H]2C(=O)N1c1ccccc1`, the AC50 in data set [10] was 1.69 µM (active); in data set [11] it was 1.76 µM (active); in [12] it was 3.51 µM (active); in data set [13], 3.84 µM (active).

Turning to `C/C=C/c1ccc([C@H]2[C@@H](CO)N(Cc3ccccn3)[C@H]2CNC(=O)CC)cc1`, the AC50 in data set [14] is 53.3 µM (active).

As to `C[C@@H]1CN([C@H](C)CO)C(=O)c2cccc(NS(=O)(=O)c3cccs3)c2O[C@@H]1CN(C)Cc1ccc(C(F)(F)F)cc1`, the AC50 in data set [10] is 2.1 µM (active); in data set [11] it was < 0.26 µM (active); in [13] it was < 0.26 µM (active).
